Experimental findings from patent US20110166206A1, “UBIQUILIN REGULATION OF PRESENILIN ENDOPROTEOLYSIS, AND SUPPRESSION OF POLYGLUTAMINE-INDUCED TOXICITY IN CELLS” (UNIVERSITY OF MARYLAND BIOTECHNOLOGY INSTITUTE, priority 2005, published 2011) are described below.

The subject of experiment [1] is PS2 NTF. Description: Cycloheximide time course of PS2 fragment production in PS2 inducible cells with or without UBQLN1 transfection. It counts as cell-based, human. As for the experimental part: (A) Time course experiment using ponA-induced PS2 cell line cultures transfected with or without UBQLN1 expression plasmids were treated with […] cycloheximide for 0-6 hours. Equal amounts of protein lysate were separated by 8.5% SDS-PAGE and subsequently immunoblotted with anti-UBQLN antibody. Transfected cells reveal a 4-fold increase in UBQLN1 levels. Next, the protein lysates were immunoblotted using anti-PS2 NH,-terminal antibody to detect FL and NTF PS2 levels, as indicated. Note both FL PS2 turnover and NTF production levels in transfected versus untransfected cell lysates.
(B) Same experiment as (A) except FL PS expression was not induced using PonA.
(C) Graphs showing relative levels of PS2 polypeptides in PS2 inducible cell lysates after densitometric analysis of the immunoreactive bands shown in panels A and B. The levels were calculated by normalization of the signals relative to that in Lane 1. The Microsoft Excel program was used to produce a best-fit line for each graph. […] However, this is completely opposite of NTF levels. UBQLN not only decreases NTF levels at every time-point in the experiment, but it also slows the rate of NTF production, as determined by measuring the slope of each line.
HeLa and HEK293 cells were grown in DMEM supplemented with 10% FBS. PS1 and S2 inducible cell lines were generated by transfection of the pERV-expressing HEK293 cell line (Stratgene, IaIolla, Calif.) with FL human PS2 cDNA under the control of ponasteroneA (PonA)-inducible cassette in plasmid pEGSH (Stratagene). Stable integration of the pEGSH plasmid was achieved by selection for hygromycin resistance. PS expression was induced by adding PonA (final cont. 10 pM) to the medium. For proteasome inhibition studies, cultures were treated with 40 uM MG132 (Calbiochem, San Diego, Calif.) for time periods as indicated. […]
To this end, protein synthesis was inhibited using cyclohexamide (CHX) and PS fragment production was monitored over a six-hour time period in UBQLN transfected and untransfected lysates that were either induced or uninduced for PS expression. […]

Experiment [2] concerns mouse cortical neurons. Description: Ubiquilin-1 overexpression in mouse primary neuronal cultures transfected with GFP-HttPolyQ74. It is filed as cell-based. On the procedure:
FIG. 10. […] Mouse cortical neurons (14 days in vitro) were transiently transfected with pEGFP (3 μg each well, a), or pEGFP-HttExon-1polyQ(74) alone (3 μg each well, b), or cotransfected with both pEGFP-HttExon-1polyQ(74) and ubiquilin-1 cDNA with the ratio indicated (3 μg of pEGFP-HttExon-1polyQ(74) plus 1.5 μg or 3 μg of ubiquilin-1 cDNA; c, d).
B. Overexpression of ubiquilin-1 reduces formation of GFP-HttPolyQ(74) inclusions in cultured mouse neurons. […] Overexpression of ubiquilin-1 reduces GFP-HttPolyQ(74)-induced cell death in cultured mouse neurons. 30 hours following transfection, the cultures were stained with both Hoechst 33342 and propidium iodide (PI) and then subjected for fluorescent microscopy analysis. PI positively stained cells were treated as dead cells and only the green (GFP-positive) cells were included in the cell death analysis. Results are mean±SD.
Next it was investigated whether the modulation of polyglutamine aggregation and toxicity by ubiquilin-1 overexpression is manifested in neuronal cells, which might be more relevant in terms of controlling neurodegeneration in HD and related disorders. […] The insolubility of the Htt protein was not measured in these cells due difficulties in preparing reliable soluble and insoluble material from neurons and because of a limitation in the number for cells required for the assay.

Experiment [3] relates to PS1 and PS2 NTF and CTF. In words: MG132 treatment of UBQLN-transfected PS1 and PS2 stable cell lines, fragment immunoblot. It counts as cell-based. Conditions: UBQLN1 transfected vs untransfected, MG132. On the procedure:
FIG. 3. […] (A) PS1 cells lines that were either not induced (lanes 1 and 3) or induced with PonA (lanes 2 and 4) and either left untransfected (lanes 1 and 2) or transfected with UBQLN1 expression plasmids (lanes 3 and 4) were treated for 7 h with MG132 after which protein lysates were collected and analyzed by immunoblotting. […] For clarification, if UBQLN did increase the turnover rate then by blocking degradation, turnover would be stopped and PS fragment levels would be similar, or increase, relative to that of untransfected cells. […] Densitometric analysis was used to quantify the extent of reduction. Each experiment was repeated more than three times and similar trends were observed.
(B) Same experiment and results as described in (A) except that PS2 inducible cell lines were used to examine PS2 NTF and CTF levels. […] UBQLN exerts greater effects on PS2 probably because it interacts more strongly with PS2, see [43].
HeLa and HEK293 cells were grown in DMEM supplemented with 10% FBS. PS1 and S2 inducible cell lines were generated by transfection of the pERV-expressing HEK293 cell line (Stratgene, IaIolla, Calif.) with FL human PS2 cDNA under the control of ponasteroneA (PonA)-inducible cassette in plasmid pEGSH (Stratagene). Stable integration of the pEGSH plasmid was achieved by selection for hygromycin resistance. […]
On the technique in general: A western blot detects proteins with antibodies after separation by electrophoresis.

As to “UBQLN1: PS-interacting protein ubiquilin-1, overexpressed in cells from a cDNA expression plasmid”, in experiment [1] (PS induced and uninduced cells treated with CHX), the “rate of PS2 NTF production” value was “slows the rate of PS2 NTF production”. In experiment [1] (transfected vs untransfected, UBQLN immunoblot), the “UBQLN1 overexpression level in transfected lysates” value turned out to be 4 fold. Also, in experiment [2], the inclusion formation result was “decreased inclusion formation” and the neuronal cell death entry was “decreased GFP-HttPolyQ74-induced neuronal cell death”. Also, in experiment [3], the “PS1 and PS2 NTF and CTF levels after MG132 treatment” value was “remained reduced”.
